In ChEMBL document CHEMBL4715697, “Synthesis and biological activity of benzamide DNA minor groove binders” (2016):

Key:
Type in all cases: functional
RPMI-8226 [1] = assay: Growth inhibition of human RPMI-8226 cells assessed as cell growth at 0.1 uM incubated for 48 hrs by sulforhodamine B assay relative to control; conditions: read-out: Activity
M14 = assay: Growth inhibition of human M14 cells assessed as cell growth at 0.1 uM incubated for 48 hrs by sulforhodamine B assay relative to control; conditions: read-out: Activity
DU-145 = assay: Growth inhibition of human DU-145 cells incubated for 48 hrs by sulforhodamine B assay
PC-3 = assay: Growth inhibition of human PC-3 cells assessed as cell growth at 0.1 uM incubated for 48 hrs by sulforhodamine B assay relative to control; conditions: read-out: Activity
BT-549 = assay: Growth inhibition of human BT-549 cells incubated for 48 hrs by sulforhodamine B assay
MDA-MB-231 = assay: Growth inhibition of human MDA-MB-231 cells assessed as cell growth at 1 uM incubated for 48 hrs by sulforhodamine B assay relative to control; conditions: read-out: Activity
SF-268 = assay: Growth inhibition of human SF-268 cells assessed as cell growth at 0.1 uM incubated for 48 hrs by sulforhodamine B assay relative to control; conditions: read-out: Activity
OVCAR-8 = assay: Growth inhibition of human OVCAR-8 cells assessed as cell growth at 100 uM incubated for 48 hrs by sulforhodamine B assay relative to control; conditions: read-out: Activity
COLO 205 = assay: Growth inhibition of human COLO 205 cells assessed as cell growth at 100 uM incubated for 48 hrs by sulforhodamine B assay relative to control; conditions: read-out: Activity
786-0 = assay: Growth inhibition of human 786-0 cells assessed as cell growth at 1 uM incubated for 48 hrs by sulforhodamine B assay relative to control; conditions: read-out: Activity
MDA-MB-468 = assay: Growth inhibition of human MDA-MB-468 cells assessed as cell growth at 1 uM incubated for 48 hrs by sulforhodamine B assay relative to control; conditions: read-out: Activity
A498 [2] = assay: Growth inhibition of human A498 cells assessed as cell growth at 0.1 uM incubated for 48 hrs by sulforhodamine B assay relative to control; conditions: read-out: Activity
IGROV-1 [3] = assay: Growth inhibition of human IGROV-1 cells assessed as cell growth at 0.01 uM incubated for 48 hrs by sulforhodamine B assay relative to control; conditions: read-out: Activity
K562 = assay: Growth inhibition of human K562 cells incubated for 48 hrs by sulforhodamine B assay
HCT-116 = assay: Growth inhibition of human HCT-116 cells incubated for 48 hrs by sulforhodamine B assay
NCI/ADR-RES = assay: Growth inhibition of human NCI/ADR-RES cells assessed as cell growth at 0.01 uM incubated for 48 hrs by sulforhodamine B assay relative to control; conditions: read-out: Activity
UO-31 = assay: Growth inhibition of human UO-31 cells assessed as cell growth at 1 uM incubated for 48 hrs by sulforhodamine B assay relative to control; conditions: read-out: Activity
NCI-H522 = assay: Growth inhibition of human NCI-H522 cells incubated for 48 hrs by sulforhodamine B assay
OVCAR-5 = assay: Growth inhibition of human OVCAR-5 cells assessed as cell growth at 100 uM incubated for 48 hrs by sulforhodamine B assay relative to control; conditions: read-out: Activity
SK-MEL-28 = assay: Growth inhibition of human SK-MEL-28 cells assessed as cell growth at 0.1 uM incubated for 48 hrs by sulforhodamine B assay relative to control; conditions: read-out: Activity
RXF 393 = assay: Growth inhibition of human RXF 393 cells incubated for 48 hrs by sulforhodamine B assay
HT-29 = assay: Growth inhibition of human HT-29 cells assessed as cell growth at 0.01 uM incubated for 48 hrs by sulforhodamine B assay relative to control; conditions: read-out: Activity
MDA-MB-435 = assay: Growth inhibition of human MDA-MB-435 cells assessed as cell growth at 0.1 uM incubated for 48 hrs by sulforhodamine B assay relative to control; conditions: read-out: Activity
RPMI-8226 [4] = assay: Growth inhibition of human RPMI-8226 cells assessed as cell growth at 100 uM incubated for 48 hrs by sulforhodamine B assay relative to control; conditions: read-out: Activity
SR [5] = assay: Growth inhibition of human SR cells assessed as cell growth at 1 uM incubated for 48 hrs by sulforhodamine B assay relative to control; conditions: read-out: Activity
MOLT-4 = assay: Growth inhibition of human MOLT-4 cells assessed as cell growth at 0.1 uM incubated for 48 hrs by sulforhodamine B assay relative to control; conditions: read-out: Activity
SR [6] = assay: Growth inhibition of human SR cells assessed as cell growth at 0.01 uM incubated for 48 hrs by sulforhodamine B assay relative to control; conditions: read-out: Activity
TK-10 = assay: Growth inhibition of human TK-10 cells assessed as cell growth at 1 uM incubated for 48 hrs by sulforhodamine B assay relative to control; conditions: read-out: Activity
A498 [7] = assay: Growth inhibition of human A498 cells assessed as cell growth at 0.01 uM incubated for 48 hrs by sulforhodamine B assay relative to control; conditions: read-out: Activity
IGROV-1 [8] = assay: Growth inhibition of human IGROV-1 cells assessed as cell growth at 1 uM incubated for 48 hrs by sulforhodamine B assay relative to control; conditions: read-out: Activity
UACC-62 = assay: Growth inhibition of human UACC-62 cells assessed as cell growth at 0.01 uM incubated for 48 hrs by sulforhodamine B assay relative to control; conditions: read-out: Activity
SN12C = assay: Growth inhibition of human SN12C cells assessed as cell growth at 1 uM incubated for 48 hrs by sulforhodamine B assay relative to control; conditions: read-out: Activity
KM12 = assay: Growth inhibition of human KM12 cells incubated for 48 hrs by sulforhodamine B assay
ACHN = assay: Growth inhibition of human ACHN cells assessed as cell growth at 0.01 uM incubated for 48 hrs by sulforhodamine B assay relative to control; conditions: read-out: Activity
CCRF-CEM = assay: Growth inhibition of human CCRF-CEM cells assessed as cell growth at 0.01 uM incubated for 48 hrs by sulforhodamine B assay relative to control; conditions: read-out: Activity
[9] = read-out: LC50 (the source's name)
[10] = read-out: pLC50 (the source's name) (converted)

CC(=O)Nc1cc(CO[Si](C)(C)C(C)(C)C)cc(NC(=O)c2ccc(C(=O)Nc3cccc(NC(=O)CCCN(C)C)c3)cc2)c1 gave a growth at 0.1 µM (RPMI-8226 [1]) of 101%, a growth at 0.1 µM (M14) of 95% and a GI50 (DU-145; read-out: GI50) greater than 75 µM. It also gave a CC50 (DU-145; [9]) greater than 75 µM, a TGI (DU-145; read-out: TGI) greater than 75 µM and a GI50 (DU-145; read-out: pGI50 (converted)) greater than 75.9 µM. It also gave a CC50 (DU-145; [10]) greater than 75.9 µM, a TGI (DU-145; read-out: pTGI) greater than 75.9 µM and a growth at 0.1 µM (PC-3) of 97%. For the same compound, the GI50 (BT-549; read-out: GI50) was greater than 75 µM, the CC50 (BT-549; [9]) was greater than 75 µM and the TGI (BT-549; read-out: TGI) was greater than 75 µM. The GI50 (BT-549; read-out: pGI50 (converted)) was greater than 75.9 µM, the CC50 (BT-549; [10]) was greater than 75.9 µM and the TGI (BT-549; read-out: pTGI) was greater than 75.9 µM. The growth at 1 µM (MDA-MB-231) was 106%, the growth at 0.1 µM (SF-268) was 100% and the growth at 100 µM (OVCAR-8) was 88%. For the same compound, the growth at 100 µM (COLO 205) was 80%, the growth at 1 µM (786-0) was 93% and the growth at 1 µM (MDA-MB-468) was 90%. It also gave a growth at 0.1 µM (A498 [2]) of 62%, a growth at 0.01 µM (IGROV-1 [3]) of 99% and a GI50 (K562; read-out: GI50) greater than 75 µM. For the same compound, the CC50 (K562; [9]) was greater than 75 µM, the TGI (K562; read-out: TGI) was greater than 75 µM and the GI50 (K562; read-out: pGI50 (converted)) was greater than 75.9 µM. The CC50 (K562; [10]) was greater than 75.9 µM, the TGI (K562; read-out: pTGI) was greater than 75.9 µM and the GI50 (HCT-116; read-out: GI50) was greater than 75 µM. The CC50 (HCT-116; [9]) was greater than 75 µM, the TGI (HCT-116; read-out: TGI) was greater than 75 µM and the GI50 (HCT-116; read-out: pGI50 (converted)) was greater than 75.9 µM. For the same compound, the CC50 (HCT-116; [10]) was greater than 75.9 µM, the TGI (HCT-116; read-out: pTGI) was greater than 75.9 µM and the growth at 0.01 µM (NCI/ADR-RES) was 103%. It also gave a growth at 1 µM (UO-31) of 105%, a GI50 (NCI-H522; read-out: GI50) greater than 75 µM and a CC50 (NCI-H522; [9]) greater than 75 µM. It also gave a TGI (NCI-H522; read-out: TGI) greater than 75 µM, a GI50 (NCI-H522; read-out: pGI50 (converted)) greater than 75.9 µM and a CC50 (NCI-H522; [10]) greater than 75.9 µM. For the same compound, the TGI (NCI-H522; read-out: pTGI) was greater than 75.9 µM, the growth at 100 µM (OVCAR-5) was 79% and the growth at 0.1 µM (SK-MEL-28) was 95%. It also gave a GI50 (RXF 393; read-out: GI50) greater than 75 µM, a CC50 (RXF 393; [9]) greater than 75 µM and a TGI (RXF 393; read-out: TGI) greater than 75 µM. For the same compound, the GI50 (RXF 393; read-out: pGI50 (converted)) was greater than 75.9 µM, the CC50 (RXF 393; [10]) was greater than 75.9 µM and the TGI (RXF 393; read-out: pTGI) was greater than 75.9 µM. It also gave a growth at 0.01 µM (HT-29) of 102%, a growth at 0.1 µM (MDA-MB-435) of 98% and a growth at 100 µM (RPMI-8226 [4]) of 104%. It also gave a growth at 1 µM (SR [5]) of 94%, a growth at 0.1 µM (MOLT-4) of 91% and a growth at 0.01 µM (SR [6]) of 106%. For the same compound, the growth at 1 µM (TK-10) was 111%, the growth at 0.01 µM (A498 [7]) was 70% and the growth at 1 µM (IGROV-1 [8]) was 81%. It also gave a growth at 0.01 µM (UACC-62) of 96%, a growth at 1 µM (SN12C) of 100% and a GI50 (KM12; read-out: GI50) greater than 75 µM. The CC50 (KM12; [9]) was greater than 75 µM, the TGI (KM12; read-out: TGI) was greater than 75 µM and the GI50 (KM12; read-out: pGI50 (converted)) was greater than 75.9 µM. For the same compound, the CC50 (KM12; [10]) was greater than 75.9 µM, the TGI (KM12; read-out: pTGI) was greater than 75.9 µM and the growth at 0.01 µM (ACHN) was 100%. The growth at 0.01 µM (CCRF-CEM) was 97%.
